In ChEMBL document CHEMBL1201862, “PubChem BioAssay data set” (2004):
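1) Cells in 96-well plates. 2) Compound, 48 h, 5 concentrations. 3) Linear interpolation between surrounding doses. 4) Unreached endpoint = highest concentration. At the GI50, growth is halved.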 Active and inactive are the calls of the source. Cut-off read from the data, not from the text of the source: active = GI50 up to about 1.1 µM and inactive = higher.

Tests used:
Experiment in all cases: DTP human tumour cell line panel, 48 h
SNB-75 = test system: SNB-75
Hs-578T = test system: Hs-578T
EKVX = test system: EKVX
MCF7 = test system: MCF7
OVCAR-5 = test system: OVCAR-5
NCI-H522 = test system: NCI-H522
OVCAR-3 = test system: OVCAR-3
UACC-257 = test system: UACC-257
M14 = test system: M14
SK-MEL-28 = test system: SK-MEL-28
CAKI-1 = test system: CAKI-1
A549 = test system: A549
HOP-62 = test system: HOP-62
IGROV-1 = test system: IGROV-1
DU-145 = test system: DU-145
ACHN = test system: ACHN
PC-3 = test system: PC-3
MDA-N = test system: MDA-N
SK-MEL-2 = test system: SK-MEL-2
SW-620 = test system: SW-620
SF-295 = test system: SF-295
SN12C = test system: SN12C
MDA-MB-231 = test system: MDA-MB-231
KM12 = test system: KM12
TK-10 = test system: TK-10
LOX IMVI = test system: LOX IMVI
SF-268 = test system: SF-268
HOP-92 = test system: HOP-92
U-251 = test system: U-251
HT-29 = test system: HT-29
RXF 393 = test system: RXF 393
MOLT-4 = test system: MOLT-4
SR = test system: SR
CCRF-CEM = test system: CCRF-CEM
NCI-H460 = test system: NCI-H460
HCT-15 = test system: HCT-15
MDA-MB-435 = test system: MDA-MB-435
HL-60 = test system: HL-60
UACC-62 = test system: UACC-62
A498 = test system: A498
HCC 2998 = test system: HCC 2998
COLO 205 = test system: COLO 205
RPMI-8226 = test system: RPMI-8226
T47D = test system: T47D
Malme-3M = test system: Malme-3M
NCI-H23 = test system: NCI-H23
HCT-116 = test system: HCT-116
OVCAR-8 = test system: OVCAR-8
SNB-19 = test system: SNB-19
786-0 = test system: 786-0
K562 = test system: K562
BT-549 = test system: BT-549
UO-31 = test system: UO-31
SK-OV-3 = test system: SK-OV-3
SK-MEL-5 = test system: SK-MEL-5
NCI-H226 = test system: NCI-H226
SF-539 = test system: SF-539
OVCAR-4 = test system: OVCAR-4

Measured: GI50

COc1cccc(C2c3cc4c(cc3OC(NNS(=O)(=O)c3ccc(C)cc3)C2C)OCO4)c1OC (stereo not given)
inactive: SNB-75 2.52 µM | Hs-578T 1.83 µM | EKVX 3.18 µM | MCF7 2.99 µM | OVCAR-5 4.82 µM | NCI-H522 1.88 µM | OVCAR-3 1.75 µM | UACC-257 2.7 µM | M14 3.59 µM | SK-MEL-28 6.98 µM | CAKI-1 2.29 µM | A549 2.62 µM | HOP-62 2.84 µM | IGROV-1 2.52 µM | DU-145 2.29 µM | ACHN 2.77 µM | PC-3 2.97 µM | MDA-N 3.37 µM | SK-MEL-2 2.31 µM | SW-620 3.08 µM | SF-295 2.9 µM | SN12C 3.2 µM | MDA-MB-231 5.47 µM | KM12 3.3 µM | TK-10 4.46 µM | LOX IMVI 2.08 µM | SF-268 4.3 µM | HOP-92 2.15 µM | U-251 2.62 µM | HT-29 3.18 µM | RXF 393 2.12 µM | MOLT-4 2.74 µM | SR 1.36 µM | CCRF-CEM 2.03 µM | NCI-H460 2.67 µM | MDA-MB-435 3.57 µM | HL-60 1.42 µM | UACC-62 3.75 µM | A498 2.41 µM | HCC 2998 5.36 µM | COLO 205 1.83 µM | RPMI-8226 2.28 µM | T47D 3.44 µM | Malme-3M 3.61 µM | NCI-H23 4.06 µM | HCT-116 1.78 µM | OVCAR-8 27.4 µM | SNB-19 3.59 µM | 786-0 22.2 µM | K562 2.12 µM | BT-549 2.2 µM | UO-31 2.63 µM | SK-OV-3 2.59 µM | SK-MEL-5 2.83 µM | NCI-H226 2.56 µM | SF-539 2.97 µM
2.65 µM: HCT-15

O=C(c1cc(Cl)cc(Cl)c1)N1CCN(C(=O)c2cc(Cl)cc(Cl)c2)C1=S
inactive: SNB-75 14.1 µM | Hs-578T 24.2 µM | EKVX 16.8 µM | MCF7 3.08 µM | OVCAR-5 20.6 µM | NCI-H522 4.38 µM | OVCAR-3 10.9 µM | UACC-257 13.3 µM | M14 13.2 µM | SK-MEL-28 23.2 µM | CAKI-1 11.9 µM | A549 17.7 µM | HOP-62 14.8 µM | IGROV-1 14.1 µM | OVCAR-4 19.1 µM | DU-145 9.18 µM | ACHN 16 µM | PC-3 13.9 µM | MDA-N 14.1 µM | SK-MEL-2 16.8 µM | SW-620 12.2 µM | SF-295 20.3 µM | SN12C 11.9 µM | MDA-MB-231 15.7 µM | KM12 11.7 µM | TK-10 10.7 µM | LOX IMVI 3.31 µM | SF-268 13.1 µM | HOP-92 6.65 µM | U-251 13.1 µM | HT-29 20.2 µM | RXF 393 11.8 µM | MOLT-4 3.94 µM | SR 3.26 µM | CCRF-CEM 2.25 µM | NCI-H460 16.6 µM | MDA-MB-435 11.7 µM | HL-60 3.31 µM | UACC-62 9.91 µM | A498 15.5 µM | HCC 2998 16.7 µM | COLO 205 15.9 µM | RPMI-8226 2.38 µM | T47D 7.06 µM | Malme-3M 11.6 µM | NCI-H23 17.4 µM | HCT-116 16.4 µM | OVCAR-8 18.6 µM | SNB-19 18.3 µM | 786-0 2.4 µM | K562 8.39 µM | BT-549 24.9 µM | UO-31 2.31 µM | SK-OV-3 16.3 µM | SK-MEL-5 16.1 µM | NCI-H226 23.7 µM | SF-539 7.28 µM
12.6 µM: HCT-15
